Our source for the EC50 values is ChEMBL document CHEMBL4266060, “Structure-Property Relationship Studies of Influenza A Virus AM2-S31N Proton Channel Blockers” (ACS Med Chem Lett, 2018).

For assay [1], the system named is Influenza A virus. Kind of assay: microbe, parasite or virus in culture. The settings on record: A/North Carolina/29/2009(H1N1), MDCK.
Assay [2] relates to Influenza A virus. Kind of assay: microbe, parasite or virus in culture. The settings on record: MDCK.
The test system of assay [3] is Influenza A virus. Kind of assay: microbe, parasite or virus in culture. The settings on record: MDCK. This is another data set of the same source.
In assay [4] the test system is Influenza A virus. Kind of assay: microbe, parasite or virus in culture. The note with it: MDCK. This is another data set of the same source.
Assay [5] relates to Influenza A virus. Kind of assay: microbe, parasite or virus in culture. The settings on record: MDCK. The source holds these as a separate data set.
Assay [6] concerns Influenza A virus. The settings on record: mdck.

The EC50 is the concentration that produces a half-maximal response. In the case of `OC12CC3CC(C1)CC(NCc1ccc(Br)s1)(C3)C2`, the EC50 stood at 2800 nM in the assay with Influenza A virus [1]; 1400 nM in the assay with Influenza A virus [2]; 2000 nM with Influenza A virus [3]; 700 nM in the assay with Influenza A virus [4]; 600 nM in the assay with Influenza A virus [5].
`OC12CC3CC(C1)CC(NCc1ccc(I)s1)(C3)C2`: the EC50 was 800 nM in the assay on Influenza A virus [2]; 700 nM in the assay on Influenza A virus [3]; 400 nM in the assay with Influenza A virus [4]; 1100 nM in the assay with Influenza A virus [6]; 600 nM in the assay on Influenza A virus [5].
Take `CCC(CC)O[C@@H]1C=C(C(=O)O)C[C@H](N)[C@H]1NC(C)=O` [OSELTAMIVIR CARBOXYLATE]: the EC50 in the assay with Influenza A virus [1] is above 200 nM; with Influenza A virus [2], 2.5 nM; in the assay on Influenza A virus [3], above 200 nM; in the assay with Influenza A virus [4], above 200 nM; in the assay on Influenza A virus [5], above 200 nM.
